# Assay results taken from PubChem BioAssay (NCI).
# “And” between values parts separate entries of the source, which are not always exact repeats. Equal entries are not always repeated.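 96-well plates; 48 h exposure; 5 concentrations. Endpoints by linear interpolation between flanking doses. Not reached: highest tested concentration assigned. Here, GI50 denotes the concentration required for 50% inhibition of growth. At the TGI there is no net growth.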
# Key:
# Test in all cases: DTP human tumour cell line panel, 48 h
# PC-3 prostate = system: PC-3 prostate
# K-562 leukemia = system: K-562 leukemia
# A498 renal = system: A498 renal
# SN12C renal = system: SN12C renal
# RXF 393 renal = system: RXF 393 renal
# U251 CNS = system: U251 CNS
# SK-OV-3 ovarian = system: SK-OV-3 ovarian
# M14 melanoma = system: M14 melanoma
# A549 NSCLC = system: A549 NSCLC
# HL-60(TB) leukemia = system: HL-60(TB) leukemia
SMILES,GI50 (PC-3 prostate),TGI (PC-3 prostate) [µM],GI50 (K-562 leukemia),TGI (K-562 leukemia),GI50 (A498 renal),TGI (A498 renal),GI50 (SN12C renal),TGI (SN12C renal) [µM],GI50 (RXF 393 renal),TGI (RXF 393 renal),GI50 (U251 CNS) [µM],TGI (U251 CNS) [µM],GI50 (SK-OV-3 ovarian),TGI (SK-OV-3 ovarian) [µM],GI50 (M14 melanoma),TGI (M14 melanoma) [µM],GI50 (A549 NSCLC),TGI (A549 NSCLC) [µM],GI50 (HL-60(TB) leukemia),TGI (HL-60(TB) leukemia)
O=C(CC1(O)C(=O)Nc2ccc(Cl)cc21)c1ccc(C(=O)NCC2CCC3(CC2)OOC2(CCCCC2)OO3)cc1 (stereo not drawn),1.88 µM,5.83,1.89 µM,4.48 µM,10.2 µM,28 µM,3.45 µM,18.4,2.8 µM,9.16 µM,1.64,3.39,2.6 µM,8.01,4.41 µM,24.6,,,,
O=C(/C=C/c1ccco1)Nc1ncc(Cc2cc(Cl)ccc2Cl)s1,0.0421 µM,> 100,0.0344 µM,> 100 µM,0.0245 µM,3.96 µM,0.117 µM,> 100,0.0328 µM,0.303 µM,0.0426,> 100,0.0538 µM,> 100,0.0373 µM,> 100,0.108 µM,> 100,0.0482 µM,0.159 µM
COc1ccc([C@@H]2[C@@H](Cl)C(=O)N2c2cc(OC)c(OC)c(OC)c2)cc1C,0.0633 µM,> 100,0.0456 µM,> 100 µM,0.0335 µM,0.314 µM,0.0999 µM,21.9,0.0313 µM,20.6 µM,0.044,17.5,0.0841 µM,> 100,0.0302 µM,17.5,0.273 µM,> 100,0.0272 µM,0.0767 µM
O=C(CC(C(=O)c1ccsc1)c1cccs1)c1cccs1 (stereo not drawn),,,,> 100 µM,,> 100 µM,,> 100,,> 100 µM,,> 100,,> 100,,> 100,,> 100,,> 100 µM
O=C(NOCCO)c1ccc2cncn2c1Nc1ccc(I)cc1F,> 10 µM and 45.4 µM,> 100,0.359 µM and 0.219 µM,> 100 µM,0.00606 µM and < 0.01 µM,0.0542 µM and 0.043 µM,> 10 µM and 19.8 µM,> 100,0.188 µM and 0.303 µM,> 10 µM and 21.4 µM,0.722,> 90.1,> 3.15 µM and 0.791 µM,> 96.2,0.00286 µM and < 0.01 µM,,0.143 µM and 0.132 µM,> 100,0.00191 µM and < 0.01 µM,> 100 µM
CSc1ccc(-c2cn3ccsc3n2)cc1,18.9 µM,> 100,4.85 µM,> 100 µM,55.6 µM,> 100 µM,32.2 µM,> 100,5.19 µM,> 92 µM,7.65,> 100,59.7 µM,> 100,18.1 µM,> 100,12.9 µM,> 100,2.42 µM,> 50 µM
COc1ccccc1NC(=O)c1sc2ncn(CCOc3ccccc3)c(=O)c2c1C,> 50 µM,> 50,0.761 µM,4.39 µM,,,17.2 µM,> 50,,,3.5,> 50,> 50 µM,> 50,3.54 µM,> 50,3.36 µM,> 50,1.93 µM,> 50 µM
CCOC(=O)c1c(CN2CCCCC2)nc2ccc(Cl)cc2c1-c1ccccc1,23.8 µM,93.7,25.6 µM,92.7 µM,18.3 µM,37.7 µM,20.3 µM,45,21.4 µM,50 µM,20.3,41.2,23.1 µM,49,24.6 µM,72.7,29.6 µM,> 100,18.1 µM,43.4 µM
O=C1OC(c2ccccc2)=N/C1=C\c1ccccc1,,> 100,> 100 µM and 19.8 µM,> 100 µM and 46.3 µM,,> 100 µM,,> 100,> 100 µM and 43 µM,> 100 µM,,> 100,,> 100,,> 100,,> 100,,99.2 µM and 84.4 µM
CC(=O)O[C@H]1CSC[C@@H](OC(C)=O)C1[N+](=O)[O-] (stereo partly drawn),,,,> 100 µM,,> 100 µM,,> 100,,36.1 µM,,> 100,,> 100,,87.7,,> 100,,54.6 µM
CO[C@H]1C[C@H](O[C@H]2CC[C@@]3(C)[C@H](CC[C@@H]4[C@@H]3CC[C@]3(C)[C@@H](C5=CC(=O)OC5)CC[C@]43O)C2)O[C@H](C)[C@H]1O,,0.0212,,,,0.0589 µM,,0.0111,,0.0105 µM,,0.0197,,0.0291,,0.0607,,< 0.0118,,
C(=C\c1ccc2ccccc2c1Nc1ccccc1)/c1ccccc1,,,,26.1 µM,,47.6 µM,,> 100,,37.6 µM,,> 64.1,,> 83,,49.6,,> 100,,> 100 µM
COc1cc([C@H]2OC[C@@H]3C(c4cc(OC)c5c(c4)OCO5)OC[C@H]23)cc(OC)c1OC (stereo partly drawn),,> 100,,> 100 µM,,> 100 µM,,,,,,> 100,,> 100,,> 100,,> 100,,
NC1(C(=O)O)CCC(C(=O)O)CC1 (stereo not drawn),,,,> 100 µM,,> 100 µM,,> 100,,> 100 µM,,> 100,,> 100,,> 100,,> 100,,> 100 µM
Nc1ncc(CN2CCCC2)c(-c2ccccc2O)n1,,,> 750 µM,,,> 750 µM,,> 750,,> 750 µM,,> 750,,> 750,,> 750,,> 750,> 750 µM,
